Measurements published in US12662465B2, “EGFR inhibitors” (Blueprint Medicines Corporation, priority 2021, dated 2026).
Like-named read-outs stand apart in the source and are kept apart here.

Assays:
[1] = target: intracellular phosphorylation of EGFR (Tyr1068) in PC-9 cells (Ex19Del) (Homo sapiens, UniProt P00533, DEL746-750); assay: PC-9 pEGFR AlphaLISA assay; assay type: cell-based; conditions: 4 hours compound incubation, read-out: Ext pEGFR_PC-9 Ex19Del IC50
EGFR (d746-750) = target: T1, EGFR (d746-750) (Homo sapiens, UniProt P00533, DEL746-750); assay: Biochemical EGFR inhibition assay (Caliper mobility shift), EGFR (d746-750); conditions: read-out: Enz EGFR_Exon19-del746-750 IC50
T1 construct: purchased SignalChem E10-122JG

EGFR L858R = target: T2, EGFR L858R (Homo sapiens, UniProt P00533, L858R); assay: Biochemical EGFR inhibition assay (Caliper mobility shift), EGFR L858R; conditions: read-out: Enz EGFR_L858R IC50
T2 construct: purchased SignalChem E10-122BG

[2] = 1.0 mM ATP or ATP Km, room temperature (25° C.)

T2 sequence (P00533 25-1210 L858R): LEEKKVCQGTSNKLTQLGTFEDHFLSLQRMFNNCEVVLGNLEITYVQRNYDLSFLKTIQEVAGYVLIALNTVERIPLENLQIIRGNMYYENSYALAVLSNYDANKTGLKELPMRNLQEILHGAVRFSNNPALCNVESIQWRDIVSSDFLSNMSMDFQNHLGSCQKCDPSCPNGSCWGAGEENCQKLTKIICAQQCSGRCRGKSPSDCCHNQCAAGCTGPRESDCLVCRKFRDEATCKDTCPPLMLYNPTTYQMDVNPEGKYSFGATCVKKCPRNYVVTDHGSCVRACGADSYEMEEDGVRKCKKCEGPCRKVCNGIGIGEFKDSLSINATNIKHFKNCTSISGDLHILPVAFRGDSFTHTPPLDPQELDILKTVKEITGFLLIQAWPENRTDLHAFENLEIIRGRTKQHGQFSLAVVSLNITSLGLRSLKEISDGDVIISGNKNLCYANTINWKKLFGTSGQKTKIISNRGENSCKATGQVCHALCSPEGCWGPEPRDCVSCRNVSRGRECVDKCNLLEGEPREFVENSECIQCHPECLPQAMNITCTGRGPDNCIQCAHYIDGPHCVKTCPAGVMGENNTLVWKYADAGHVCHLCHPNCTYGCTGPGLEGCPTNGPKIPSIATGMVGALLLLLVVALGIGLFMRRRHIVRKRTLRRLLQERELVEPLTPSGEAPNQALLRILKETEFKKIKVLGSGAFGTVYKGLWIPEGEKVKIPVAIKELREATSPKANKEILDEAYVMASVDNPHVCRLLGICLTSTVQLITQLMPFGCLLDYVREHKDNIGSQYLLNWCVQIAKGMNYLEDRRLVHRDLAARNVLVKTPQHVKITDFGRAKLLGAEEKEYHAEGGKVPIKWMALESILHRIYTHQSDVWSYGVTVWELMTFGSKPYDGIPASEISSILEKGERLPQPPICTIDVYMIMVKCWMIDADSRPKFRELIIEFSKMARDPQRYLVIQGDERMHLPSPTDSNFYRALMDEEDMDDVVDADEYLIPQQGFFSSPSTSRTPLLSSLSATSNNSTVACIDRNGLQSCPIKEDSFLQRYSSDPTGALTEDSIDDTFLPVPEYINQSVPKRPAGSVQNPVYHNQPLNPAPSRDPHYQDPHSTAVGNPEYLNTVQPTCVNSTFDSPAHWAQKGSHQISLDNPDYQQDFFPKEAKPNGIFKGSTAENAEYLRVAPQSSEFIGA
Sequence of intracellular phosphorylation of EGFR (Tyr1068) in PC-9 cells (Ex19Del) (P00533 with tags, fused parts or gaps DEL746-750): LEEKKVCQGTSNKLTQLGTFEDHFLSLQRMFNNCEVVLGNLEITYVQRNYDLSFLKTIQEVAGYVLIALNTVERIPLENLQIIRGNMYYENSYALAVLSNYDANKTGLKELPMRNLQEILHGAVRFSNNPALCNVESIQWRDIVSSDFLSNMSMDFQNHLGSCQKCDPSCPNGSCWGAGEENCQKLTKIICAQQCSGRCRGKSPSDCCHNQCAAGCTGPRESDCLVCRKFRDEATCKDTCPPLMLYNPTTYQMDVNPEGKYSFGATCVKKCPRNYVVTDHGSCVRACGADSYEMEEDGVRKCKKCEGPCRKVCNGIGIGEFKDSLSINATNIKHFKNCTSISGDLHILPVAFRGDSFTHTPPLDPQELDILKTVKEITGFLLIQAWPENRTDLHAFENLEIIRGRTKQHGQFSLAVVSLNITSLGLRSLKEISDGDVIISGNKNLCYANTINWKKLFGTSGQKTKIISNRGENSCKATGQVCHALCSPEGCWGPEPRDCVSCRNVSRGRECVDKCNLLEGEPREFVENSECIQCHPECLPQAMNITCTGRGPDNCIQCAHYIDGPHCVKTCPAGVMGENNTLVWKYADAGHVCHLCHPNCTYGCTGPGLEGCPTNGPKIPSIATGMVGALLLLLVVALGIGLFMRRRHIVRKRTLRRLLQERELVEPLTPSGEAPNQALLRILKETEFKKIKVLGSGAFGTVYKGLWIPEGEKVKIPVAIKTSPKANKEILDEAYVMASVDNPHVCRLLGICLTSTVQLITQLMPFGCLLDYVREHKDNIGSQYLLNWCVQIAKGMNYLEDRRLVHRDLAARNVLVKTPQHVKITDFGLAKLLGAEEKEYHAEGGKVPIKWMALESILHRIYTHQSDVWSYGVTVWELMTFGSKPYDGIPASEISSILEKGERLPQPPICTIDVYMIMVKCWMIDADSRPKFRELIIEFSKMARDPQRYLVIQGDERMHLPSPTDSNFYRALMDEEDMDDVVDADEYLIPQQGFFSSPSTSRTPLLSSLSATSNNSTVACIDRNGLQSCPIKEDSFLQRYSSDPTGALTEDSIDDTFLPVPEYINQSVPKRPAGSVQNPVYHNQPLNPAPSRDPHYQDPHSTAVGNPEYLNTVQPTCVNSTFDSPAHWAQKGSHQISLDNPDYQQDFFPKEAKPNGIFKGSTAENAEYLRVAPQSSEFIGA
T1 sequence (P00533 with tags, fused parts or gaps DEL746-750 limits assumed): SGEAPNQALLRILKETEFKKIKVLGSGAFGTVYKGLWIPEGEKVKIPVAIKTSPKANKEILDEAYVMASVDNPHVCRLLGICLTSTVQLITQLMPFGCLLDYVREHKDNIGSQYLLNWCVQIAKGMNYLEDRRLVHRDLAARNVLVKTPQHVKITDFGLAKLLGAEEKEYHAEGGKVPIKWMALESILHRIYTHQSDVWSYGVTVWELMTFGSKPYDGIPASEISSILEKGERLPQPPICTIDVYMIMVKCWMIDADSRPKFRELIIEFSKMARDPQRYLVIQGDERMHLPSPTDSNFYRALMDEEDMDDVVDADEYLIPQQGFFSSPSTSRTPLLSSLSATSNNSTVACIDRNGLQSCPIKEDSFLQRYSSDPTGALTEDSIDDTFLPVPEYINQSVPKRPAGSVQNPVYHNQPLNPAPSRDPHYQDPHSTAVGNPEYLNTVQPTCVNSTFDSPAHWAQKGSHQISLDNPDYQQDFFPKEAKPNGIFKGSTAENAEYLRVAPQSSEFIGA

Compound | IC50 [1] [nM] | IC50 (EGFR (d746-750)) [nM] | IC50 (EGFR L858R) [nM] | IC50 (EGFR (d746-750); [2]) [nM] | IC50 (EGFR L858R; [2]) [nM]
CC(CN(C)C)Oc1cc(-c2cnn(C)c2)cc2ncnc(Nc3ccc4ncccc4c3)c12 (racemic) [Example 42, (R)-5-((1-(dimethylamino)propan-2-yl)oxy)-7-(1-methyl-1H-pyrazol-4-yl)-N-(quinolin-6-yl)quinazolin-4-amine and (S)-5-((1-(dimethylamino)propan-2-yl)oxy)-7-(1-methyl-1H-pyrazol-4-yl)-N-(quinolin-6-yl)quinazolin-4-amine] | ≤ 10 | < 10 | < 10 |  | 
CC(CN(C)C)Oc1cc(N2CC3CC(C2)O3)cc2ncnc(Nc3ccc4ncccc4c3)c12 (racemic) [Example 66, 7-(6-oxa-3-azabicyclo[3.1.1]heptan-3-yl)-5-(((R)-1-(dimethylamino)propan-2-yl)oxy)-N-(quinolin-6-yl)quinazolin-4-amine and 7-(6-oxa-3-azabicyclo[3.1.1]heptan-3-yl)-5-(((S)-1-(dimethylamino)propan-2-yl)oxy)-N-(quinolin-6-yl)quinazolin-4-amine] | ≤ 10 | < 10 | 10.1 to 50 |  | 
COC1CCN(c2cc(O[C@H](C)C3COC3)c3c(Nc4ccc5ncccc5c4F)ncnc3c2)C1 (mixture of isomers) [Example 84, N-(5-fluoroquinolin-6-yl)-7-((R)-3-methoxypyrrolidin-1-yl)-5-((R)-1-(oxetan-3-yl)ethoxy)quinazolin-4-amine and N-(5-fluoroquinolin-6-yl)-7-((S)-3-methoxypyrrolidin-1-yl)-5-((R)-1-(oxetan-3-yl)ethoxy)quinazolin-4-amine] | ≤ 10 | < 10 | < 10 |  | 
COC1CCN(c2cc(O[C@H](C)CN(C)C)c3c(Nc4ccc5ncccc5c4F)ncnc3c2)C1 (mixture of isomers) [Example 86, 5—(((R)-1-(dimethylamino)propan-2-yl)oxy)-N-(5-fluoroquinolin-6-yl)-7-((R)-3-methoxypyrrolidin-1-yl)quinazolin-4-amine and 5-(((R)-1-(dimethylamino)propan-2-yl)oxy)-N-(5-fluoroquinolin-6-yl)-7-((S)-3-methoxypyrrolidin-1-yl)quinazolin-4-amine] | ≤ 10 | < 10 | < 10 |  | 
C[C@H](CN(C)C)Oc1cc(N2CCOC(C(F)F)C2)cc2ncnc(Nc3ccc4ncccc4c3F)c12 (mixture of isomers) [Example 98, 7—((S)-2-(difluoromethyl)morpholino)-5-(((R)-1-(dimethylamino)propan-2-yl)oxy)-N-(5-fluoroquinolin-6-yl) and 7-((R)-2-(difluoromethyl)morpholino)-5-(((R)-1-(dimethylamino)propan-2-yl)oxy)-N-(5-fluoroquinolin-6-yl)quinazolin-4-amine] | ≤ 10 | < 10 | 10.1 to 50 |  | 
CC(CO)n1cc(-c2cc(O[C@H](C)C3COC3)c3c(Nc4ccc5ncccc5c4F)ncnc3c2)cn1 (mixture of isomers) [Example 119, (R)-2-(4-(4-((5-fluoroquinolin-6-yl)amino)-5-((R)-1-(oxetan-3-yl)ethoxy)quinazolin-7-yl)-1H-pyrazol-1-yl)propan-1-ol and (S)-2-(4-(4-((5-fluoroquinolin-6-yl)amino)-5-((R)-1-(oxetan-3-yl)ethoxy)quinazolin-7-yl)-1H-pyrazol-1-yl)propan-1-ol] | ≤ 10 | < 10 | < 10 |  | 
C[C@@H](Oc1cc(-c2cnn(C)c2)cc2ncnc(Nc3ccc4ncccc4c3F)c12)C1COC1 (single isomer, unassigned) [Example 1, (R)—N-(5-fluoroquinolin-6-yl)-7-(1-methyl-1H-pyrazol-4-yl)-5-(1-(oxetan-3-yl)ethoxy)quinazolin-4-amine or (S)—N-(5-fluoroquinolin-6-yl)-7-(1-methyl-1H-pyrazol-4-yl)-5-(1-(oxetan-3-yl)ethoxy)quinazolin-4-amine] | ≤ 10 |  |  | < 10 | < 10
